Test results reported in patent publication US12048686B2, “Compositions and methods for activating NRF2-dependent gene expression” (The University of Chicago, priority 2018, dated 2024).

Tests used:
[1] = LC-MS quantification of compound incubated with or without GSH (glutathione reactivity); type: physicochemical; details: 50 μM compound, GSH 1 mM in PBS, 1 hour and 48 hours
Protocol: FIG. 4 A high throughput screen identifies a non-covalent NRF2 activator chemical series which activate a robust NRF2 transcriptional program in multiple cell types. LC-MS quantification of CBR-470-1 (50 μM) incubated in the presence or absence of GSH (1 mM) in PBS for 1 hour (left) and 48 hours (right). Relative ion intensities within each time point were compared with representative chromatograms shown (n=2).

[2] = target: T1, PGK1 (Homo sapiens, UniProt P00558); experiment: Dye-based thermal denaturation assay; type: binding; details: recombinant PGK1, compound 20 μM
T1 sequence (P00558 1-417): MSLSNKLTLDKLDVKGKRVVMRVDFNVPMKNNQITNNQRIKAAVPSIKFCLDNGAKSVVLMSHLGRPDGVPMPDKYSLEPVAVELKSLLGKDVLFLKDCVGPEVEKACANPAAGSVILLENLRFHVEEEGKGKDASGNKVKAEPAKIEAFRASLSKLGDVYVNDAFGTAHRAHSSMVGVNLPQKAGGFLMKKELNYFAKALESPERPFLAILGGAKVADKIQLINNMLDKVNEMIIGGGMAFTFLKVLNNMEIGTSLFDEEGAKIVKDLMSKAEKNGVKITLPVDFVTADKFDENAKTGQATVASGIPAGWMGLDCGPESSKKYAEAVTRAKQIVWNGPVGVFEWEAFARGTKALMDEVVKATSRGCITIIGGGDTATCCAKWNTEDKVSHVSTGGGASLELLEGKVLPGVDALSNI
Protocol: (§1) FIG. 5A-E. A photoactivatable affinity probe-based approach identifies PGK1 as the relevant cellular target of CBR-470-1. (a) Silver staining and anti-biotin Western blots of ammonium sulfate fractionated lysates from UV-irradiated IMR32 cells treated with 5 μM for 1 hour with or without CBR-470-1 competition (250 μM) (n=3). Shown on the right are initial proteomic target results from gel-band digestion and LC-MS/MS analysis. (b) Dye-based thermal denaturation assay with recombinant PGK1 in the presence CBR-470-1 (20 μM) or vehicle alone (n=3). Calculated Tm values are listed. (c, d) Dose-dependent thermal stability assay of recombinant PGK1 and GAPDH in the presence of increasing doses of CBR-470-1 near the Tm of both proteins (57° C.) (c) (n=5) or room temperature (d) (n=3). Western blot of sample supernatants after centrifugation (13,000 rpm) detected total PGK1 and GAPDH protein, which were plotted in Prism (below). (e) ARE-LUC reporter activity in HEK293T cells with transient shRNA.
Dye-based thermal denaturation assay. Thermal denaturation experiments were performed using a Protein Thermal Shift Dye Kit (ThermoFisher, 4461146). […] Fluorescence values were recorded using a Viia7 Real-Time PCR instrument according to supplied instructions.

[3] = target: T1, PGK1; experiment: Isothermal dose response profiling of PGK1 against GAPDH; type: binding; details: 57° C., 0-333 μM
Protocol: as §1
Isothermal dose response profiling of PGK1. In-vitro thermal profiling assay for recombinant proteins was performed by dissolving pure recombinant PGK1 and GAPDH into PBS and dividing equal amount of mixture into 9 aliquots. […] Samples were analyzed by SDS-PAGE and Western blot.

[4] = tested on: NRF2 target genes NQO1 and HMOX1; experiment: Quantitative RT-PCR of NRF2 target genes in IMR32 cells; type: cell-based; details: MGx 1 mM
Protocol: FIG. 2A-F. Methylglyoxal modifies KEAP1 to form a covalent, high molecular weight dimer and activate NRF2 signaling. (a) Time-course, anti-FLAG Western blot analysis of whole cell lysates from HEK293T cells expressing FLAG-KEAP1 treated with DMSO or CBR-470-1. (b) Western blot monitoring of FLAG-KEAP1 migration in HEK293 T lysates after incubation with central glycolytic metabolites in vitro (1 and 5 mM, left and right for each metabolite). (c) FLAG-KEAP1 (red) and β-actin (green) from HEK293T cells treated with MGx (5 mM) for 8 hr. (d) Relative NQO1 and HMOX1 mRNA levels in IMR32 cells treated with MGx (1 mM) or water control (n=3). (e) LC-MS/MS quantitation of cellular MGx levels in IMR32 cells treated with CBR-470-1 relative to DMSO (n=4). (f) ARE-LUC reporter activity in HEK293T cells with transient shRNA knockdown of GLO1 (n=8). Univariate two-sided t-test (d, f); data are mean±SEM of biologically independent samples.
Quantitative RT-PCR. Cells were collected by trypsinization and subsequent centrifugation at 500 g. […] Quantitative RT-PCR reactions were measured on a Viia 7 Real-Time PCR system (Thermo) using a Clontech SYBR green-based master mix. Reactions were normalized to TUBG1 levels for each biological replicate and relative transcript abundance calculated using the comparative Ct method.

In the case of `CC(C)CN[C@H]1CS(=O)(=O)C[C@@H]1S(=O)(=O)c1ccc(Cl)cc1` [CBR-470-1], the “reactivity in glutathione assays” value [1] is reported as “not reactive in glutathione assays”, the “shift in PGK1 thermal stability” value [2] is reported as “consistent shift in PGK1 stability” and the “alteration of PGK1 stability, isothermal dose response against PGK1 and GAPDH” value [3] is reported as “selective, dose-dependent alteration of PGK1 stability”.

In the case of `CC(=O)C=O` [MGx, methylglyoxal, reference compound], the “expression of NRF2 target genes NQO1 and HMOX1” value [4] is reported as “functionally activated expression of the downstream NRF2 target genes NQO1 and HMOX1”.
